Assay results from patent US20190307690A1 (THE AMERICAN UNIVERSITY IN CAIRO, priority 2016, published 2019).

Columns and labels:
[1] = In-vitro drug release analysis (dialysis, PBS pH 7.4) with release kinetics and f1/f2 comparison; type: physicochemical; conditions: oxaliplatin release
Method: The drug release testing was conducted according to a described method (Shazly et al., Comparison of dialysis and dispersion methods for in vitro release determination of drugs from multilamellar liposomes, Dissolution Technol., vol. 15, no. 2, pp. 7-10, 2008). […] A volume of 0.5 ml of liposomal preparation was placed in a dialysis tubing (3.8 cm in length). Both ends were tied. The dialysis bag was suspended in 25 ml PBS at pH 7.4 and maintained at 37±0.5° C. (Shazly et al., 2008). The dispersion was rotated at 200 strokes/minute in a water bath shaker (Shazly et al., 2008). At predetermined time intervals of 0.25, 0.5, 1, 1.5, 2, 4, 6, 8, 12, 24, 48, and 72 h; 1 ml aliquots were sampled and replaced with 1 ml fresh pH 7.4 PBS, which was maintained at the same temperature as the samples being 37±0.5° C. Drug concentrations were determined using HPLC.
Two methods were used to investigate the kinetics of drug release profile from the prepared liposomal formulations.
This method involved the fitting of the release data to one of the following seven release kinetic models.
Where, Qt is the amount of drug released in time t, Q0 is the initial amount of drug in the solution and K0 is the zero order release constant expressed in units of concentration/time. To study the release kinetics, data obtained from in-vitro drug release studies were plotted as cumulative amount of drug released versus time.
Where, Ct is the concentration of drug released in time t, C0 is the initial concentration of drug, K1 is the first order rate constant. The data obtained were plotted as log cumulative percentage of drug remaining versus time which would yield a straight line with a slope of −K/2.303.
Where, Q is the amount of drug released in time t, KH is the Higuchi dissolution constant. The data obtained were plotted as cumulative percentage of drug released versus square root of time.
Where, Qt is the amount of drug remaining in time t, Q0 is the initial amount of the drug in liposome and KC is the rate constant for Hixson-Crowell rate equation. The data obtained were plotted as Cube root of cumulative percentage of drug remaining versus time.
Where Mt/M∞ is a fraction of drug released at time t, KP is the release rate constant and n is the release exponent. The data obtained were plotted as log (cumulative percentage of drug released) versus log (time).
Where [Mt/M∞] is a fraction of drug released at time t, KB is the release rate constant. To study the release kinetics, data obtained from in-vitro drug release were plotted as [d(Mt/M∞)/dt] against the root of time inverse on x-axis.
Where Vm is the maximum release rate, Km is the Michaelis-Menten constant, C is the amount of drug released, and t is time. The data obtained were plotted as drug release % versus time. Michaelis-menten was previously reported in describing the release kinetics of Ketorolac from silica nanoparticles (Lopez Goerneet al., Obtaining of sol-gel ketorolac-silica nanoparticles: Characterization and drug release kinetics, J. Nanomater., vol. 2013, 2013).
This method utilizes the difference factor (f1), similarity factor (f2) to compare the release profiles of different formulations by measuring the percent difference and the percent similarity respectively.
Where, n is the number of release sample time intervals, Rt, and Tt are the percent released at each time point, t, for the reference and test drug release profiles, respectively.

MCF-7 cell line = test: γ-H2AX assay (DNA damage); type: cell-based, human; conditions: 2 μM, 1 hr exposure, 24 hours in fresh media; preliminary data
Method: After incubation, the media was discarded and the cells were further incubated in fresh media for 24 hours. Cells were then fixed using formaldehyde and permeabilized with Triton X-100, and subsequently incubated with H2AX primary antibody for 1 hr. Then, cells were washed using PBS and were further incubated for 30 min. in FITC mouse secondary antibody and washed using PBS. Finally cells were stained using DAPI and observed under a fluorescence microscope.

[2] = reference [91]; cited from earlier work

With N[C@@H]1CCCC[C@H]1N.O=C([O-])C(=O)[O-].[Pt+2] [Oxaliplatin, Platinum(2+) ethanedioate (1R,2R)-1,2-cyclohexanediamine (1:1:1)] as the molecule, how does the “Baker-Lonsdale K (release rate constant)” value [1] read?
Its value is 0.1963.

What about the “First-order K1 (release rate constant)” value [1] of the same molecule?
The value was −0.0172.

What about the “Higuchi KH (rate constant)” value [1] of the same molecule?
Its value is 4.5644.

What about the “Hixson-Crowell KC (cube root law release constant)” value [1] of the same molecule?
The value was −0.0127.

What about the “Korsmeyer-peppas n (slope exponent)” value [1] of the same molecule?
Its value is 0.0257.

And the “Michaelis-Menten K (release rate constant)” value [1]?
The value was 0.0422.

And the “Zero-order K0 (release rate constant)” value [1]?
The value was 0.3444.

And the “F1 (difference factor)” value ([1]; Reference LP-Ox)?
The value was 11.37.

What about the “F2 (similarity factor)” value ([1]; Reference LP-Ox) of the same molecule?
The value was 50.60.

And the “F1 (difference factor)” value ([1]; Reference LP-void-Oxpt)?
Its value is 22.47.

And the “F2 (similarity factor)” value ([1]; Reference LP-void-Oxpt)?
Its value is 38.25.

And the “F1 (difference factor)” value ([1]; Reference Lipoxal)?
The value was 252.7.

And the “F2 (similarity factor)” value ([1]; Reference Lipoxal)?
Its value is 8.940.

What about the “DNA damage magnitude (γ-H2AX immunofluorescence), in words” value (MCF-7 cell line) of the same molecule?
Its value is “relatively lower DNA damage”.

What about the Cell membrane permeability [2] of the same molecule?
The Cell membrane permeability was <1 × 10^−6 [91] cm/s.
